Reference: ChEMBL document CHEMBL5532671, “Leucosceptrane Sesterterpenoids as a New Type of Natural Immunosuppressive Agents in Treating Sepsis” (J Med Chem, 2024)
Calls of active or inactive are those of the source. The calls are words filed in the database; no cut-off is given here.

Key:
[1] = system: T-cell; assay: Immunosuppressive activity in C57BL/6 female mouse T-cells isolated from spleen assessed as inhibition of LPS-induced IFN-gamma secretion at 1 uM treated for 48 hrs by ELISA based assay relative to control; format: functional; conditions: C57BL/6, T-cell
[2] = system: T-cell; assay: Inhibition of proliferation of C57BL/6 female mouse T-cells isolated from spleen at 1 uM relative to control; format: functional; conditions: C57BL/6, T-cell
[3] = system: T-cell; assay: Inhibition of proliferation of C57BL/6 female mouse T-cells isolated from spleen at 20 uM relative to control; format: functional; conditions: C57BL/6, T-cell
[4] = system: Mus musculus; assay: Reduction in TNF-alpha level in LPS-induced sepsis mouse model peripheral blood at 25 mg/kg, IG measured after 12 hrs by ELISA based assay; format: functional, organism-based
[5] = system: RAW264.7; assay: Immunosuppressive activity in mouse RAW264.7 cells assessed as reduction in expression of ERK phosphorylation at 10 to 40 uM by Western blot analysis; format: functional, cell-based; conditions: dose 10-40 µM
[6] = system: RAW264.7; assay: Inhibition of cytokine secretion in mouse RAW264.7 cells assessed as suppression of LPS-induced TNF-alpha at 40 uM secretion measured after 48 hrs by ELISA based assay; format: functional, cell-based
[7] = species on record: Mus musculus; assay: Immunosuppressive activity in C57BL/6 female mouse T Cells isolated from spleen assessed as inhibition of anti-CD3/CD28-induced IFN-gamma secretion measured after 48 hrs by ELISA based assay relative to control; format: functional; conditions: T-cell
[8] = system: RAW264.7; assay: Immunosuppressive activity in mouse RAW264.7 cells assessed as reduction in expression of P70S6K phosphorylation at 10 to 40 uM by Western blot analysis; format: functional, cell-based; conditions: dose 10-40 µM
[9] = system: T-cell; assay: Immunosuppressive activity in C57BL/6 female mouse T-cells isolated from spleen assessed as inhibition of LPS-induced IFN-gamma secretion treated for 48 hrs by ELISA based assay; format: functional; conditions: C57BL/6, T-cell
[10] = system: Mus musculus; assay: Antisepsis against LPS-induced sepsis mouse multiorgan damage model model assessed as reduction in multiorgan damage at 25 to 50 mg/kg, IG measured after 24 hrs by H and E staining assay; format: functional, organism-based; conditions: dose 25-50 mg/kg
[11] = system: RAW264.7; assay: Antiproliferative activity against mouse RAW264.7 cells at 2.5 to 40 uM; format: toxicity, cell-based; conditions: raw264.7, 40 µM, dose 2.5-40 µM
[12] = species on record: Mus musculus; assay: Antisepsis against LPS-induced sepsis mouse model assessed as increase in survival rate of mouse treated IG measured upto 24 hrs; format: functional, organism-based
[13] = system: RAW264.7; assay: Inhibition of cytokine secretion in mouse RAW264.7 cells assessed as suppression of LPS-induced IL-6 secretion at 40 uM measured after 48 hrs by ELISA based assay; format: functional, cell-based
[14] = system: T-cell; assay: Immunosuppressive activity in C57BL/6 female mouse T-cells isolated from spleen assessed as inhibition of LPS-induced IFN-gamma secretion at 20 uM treated for 48 hrs by ELISA based assay relative to control; format: functional; conditions: C57BL/6, T-cell
[15] = system: Mus musculus; assay: Reduction in IL-6 level in LPS-induced sepsis mouse model peripheral blood at 50 mg/kg, IG measured after 12 hrs by ELISA based assay; format: functional, organism-based
[16] = system: RAW264.7; assay: Inhibition of cytokine secretion in mouse RAW264.7 cells assessed as suppression of LPS-induced TNF-alpha secretion measured after 48 hrs by ELISA based assay; format: functional, cell-based; conditions: dose 2.5-40 µM
[17] = system: T-cell; assay: Blocked of cell cycle progression in anti-CD3/CD28 stimulated C57BL/6 female mouse T-cells isolated from spleen assessed as increase in cells at G0/G1 phase at 5 to 20 uM measured after 48 hrs by flow cytometry assay; format: functional, cell-based; conditions: dose 5-20 µM
[18] = system: T-cell; assay: Blocked of cell cycle progression in anti-CD3/CD28 stimulated C57BL/6 female mouse T-cells isolated from spleen assessed as increase in cells at G2/M phase measured after 48 hrs by flow cytometry assay; format: functional, cell-based; conditions: dose 5-20 µM
[19] = system: RAW264.7; assay: Inhibition of cytokine secretion in mouse RAW264.7 cells assessed as suppression of LPS-induced IL-6 secretion measured after 48 hrs by ELISA based assay; format: functional, cell-based; conditions: dose 2.5-40 µM
[20] = system: RAW264.7; assay: Immunosuppressive activity in mouse RAW264.7 cells assessed as reduction in expression of JNK phosphorylation at 10 to 40 uM by Western blot analysis; format: functional, cell-based; conditions: dose 10-40 µM
[21] = system: T-cell; assay: Blocked of cell cycle progression in anti-CD3/CD28 stimulated C57BL/6 female mouse T-cells isolated from spleen assessed as decrease in cells at S phase measured after 48 hrs by flow cytometry assay; format: functional, cell-based; conditions: dose 5-20 µM
[22] = system: T-cell; assay: Inhibition of proliferation of C57BL/6 female mouse T-cells isolated from spleen; format: functional, cell-based; conditions: C57BL/6, T-cell

C/C=C/C[C@@H](C)[C@@H](O)[C@H]1C(=O)N[C@@H](CC)C(=O)N(C)CC(=O)N(C)[C@@H](CC(C)C)C(=O)N[C@@H](C(C)C)C(=O)N(C)[C@@H](CC(C)C)C(=O)N[C@@H](C)C(=O)N[C@H](C)C(=O)N(C)[C@@H](CC(C)C)C(=O)N(C)[C@@H](CC(C)C)C(=O)N(C)[C@@H](C(C)C)C(=O)N1C [CYCLOSPORINE]
inhibition at 1 µM [1]: 99.2% | inhibition at 1 µM [2]: 36.7%

CC(C)=CC(=O)[C@@]1(O)[C@@H](C)[C@@H]2CC[C@H](C)[C@H]2C(=O)[C@]1(O)[C@H](C)CC[C@@H]1OC(=O)C=C1C
inhibition at 20 µM [3]: 14.7% | Activity [4]: Active | Activity [5]: Active | inhibition [6]: Active | Activity [7]: Active | Activity [8]: Active | IC50 [9]: 9.94 µM | Activity [10]: Active | Activity [11]: Non-Toxic | Activity [12]: Dose-Dependent Effect | inhibition [13]: Active | inhibition at 20 µM [14]: 54.3% | Activity [15]: Active

CC(C)=C[C@H]1O[C@@](C)(CCc2occc2C)[C@@H]2C(=O)[C@]3(O)[C@@H](C)CC[C@H]3[C@H](C)[C@@]21O
inhibition at 20 µM [3]: < 10% | IC50 [9]: 9.15 µM | inhibition at 20 µM [14]: 56.8%

CC(C)=C[C@H]1O[C@@](C)(C[C@@H]2C(=O)C(C)=C[C@H]2O)[C@@H]2C(=O)[C@@]3(O)[C@@H](C)CC[C@H]3[C@H](C)[C@@]21O
inhibition at 20 µM [3]: 11% | IC50 [9]: 11.9 µM | inhibition at 20 µM [14]: 65.3%

CC(C)=C[C@H]1O[C@@](C)(C/C=C2\NC(=O)C=C2C)C2=C1[C@@H](C)[C@@H]1CC[C@H](C)[C@]1(O)C2=O
inhibition at 20 µM [3]: 10.4% | IC50 [9]: 26.8 µM | inhibition at 20 µM [14]: 66%

CC(C)=C[C@H]1O[C@@](C)(CCc2occc2C)C2=C1[C@@H](C)[C@@H]1CC[C@H](C)[C@]1(O)C2=O
inhibition [16]: Dose-Dependent Effect | Activity [17]: Active | inhibition at 20 µM [3]: 39.8% | Activity [18]: Dose-Dependent Effect | Activity [5]: Active | Activity [7]: Active | inhibition [19]: Dose-Dependent Effect | Activity [20]: Active | Activity [8]: Active | IC50 [9]: 4.94 µM | Activity [11]: Non-Toxic | inhibition at 20 µM [14]: 73.7% | Activity [21]: Dose-Dependent Effect | IC50 [22]: 32.5 µM

CC(C)=C[C@H]1O[C@@](C)(C[C@H]2C(=O)C(C)=C[C@@H]2O)[C@@H]2C(=O)[C@@]3(O)[C@@H](C)CC[C@H]3[C@H](C)[C@@]21O
inhibition at 20 µM [3]: 11.8% | IC50 [9]: 11.6 µM | inhibition at 20 µM [14]: 57.3%

CC(C)=CC1O[C@@]2(C)CC[C@]3(OC(=O)C=C3C)O[C@]13[C@H]2C(=O)[C@H]1[C@@H](CC[C@@H]1C)[C@@H]3C (some centres not stated)
inhibition at 20 µM [3]: 51.5% | IC50 [9]: 12.6 µM | inhibition at 20 µM [14]: 69.4% | IC50 [22]: 25.8 µM

CC(C)=CC(=O)[C@@]1(O)[C@@H](C)[C@@H]2CC[C@H](C)[C@H]2C(=O)[C@@]12O[C@@H](c1occc1C)C[C@H]2C
inhibition at 20 µM [3]: < 10% | IC50 [9]: 16.7 µM | inhibition at 20 µM [14]: 63.4%

CC(C)=C[C@H]1O[C@@](C)(CC[C@@H]2OC(=O)C=C2C)[C@@H]2C(=O)[C@H]3[C@@H](CC[C@@H]3C)[C@H](C)[C@@]21O
inhibition at 20 µM [3]: 26.7% | IC50 [9]: 23.6 µM | inhibition at 20 µM [14]: 57.6%

CC(C)=C[C@H]1O[C@@](C)(CCc2occc2C)[C@@H]2C(=O)[C@@H]3[C@@H](CC[C@@H]3C)[C@H](C)[C@@]21O
inhibition at 20 µM [3]: < 10% | IC50 [9]: 19.9 µM | inhibition at 20 µM [14]: 53.7%

CC(C)=C[C@H]1O[C@@](C)(C/C=C2\NC(=O)C=C2C)[C@@H]2C(=O)[C@@H]3[C@@H](CC[C@@H]3C)[C@H](C)[C@@]21O
inhibition at 20 µM [3]: 13.8% | IC50 [9]: 19.6 µM | inhibition at 20 µM [14]: 56.4%
